Assay results as given in ChEMBL document CHEMBL1139965, “Synthesis and antifungal activities of new fluconazole analogues with azaheterocycle moiety” (2007).
≈ marks a conversion by molar mass, not a printed value.

Columns and labels:
Candida albicans = test: Antifungal activity against Candida albicans CA980001 by alamar blue assay; assay type: functional
Aspergillus fumigatus = test: Antifungal activity against Aspergillus fumigatus AF980003 by alamar blue assay; assay type: functional

O=C1CCCc2c1ccn2C[C@@](O)(Cn1cncn1)c1ccc(Cl)cc1Cl was tested, and the MIC (Candida albicans) was 0.07 µg/mL (≈ 0.173 µM) and the MIC (Aspergillus fumigatus) was > 100 µg/mL.
Compound O[C@@](Cn1cncn1)(Cn1ccc2cccnc21)c1ccc(F)cc1F has an MIC (Candida albicans) of 0.007 µg/mL (≈ 0.0197 µM) and an MIC (Aspergillus fumigatus) of 21 µg/mL (≈ 59.1 µM).
For OC(Cn1cncn1)(Cn1cncn1)c1ccc(F)cc1F [FLUCONAZOLE], the MIC (Candida albicans) was 0.02 µg/mL (≈ 0.0653 µM).
In the case of O[C@](CNc1ccc2[nH]ccc2c1)(Cn1cncn1)c1ccc(Cl)cc1Cl, the MIC (Candida albicans) was 0.026 µg/mL (≈ 0.0646 µM) and the MIC (Aspergillus fumigatus) was > 100 µg/mL.
With O[C@@](Cn1cncn1)(Cn1ncc2ccccc21)c1ccc(Cl)cc1Cl the MIC (Candida albicans) was 0.0007 µg/mL (≈ 0.0018 µM) and the MIC (Aspergillus fumigatus) was > 100 µg/mL.
O[C@@](Cn1cncn1)(Cn1ccc2cccnc21)c1ccc(Cl)cc1Cl showed an MIC (Candida albicans) of 0.0031 µg/mL (≈ 0.00798 µM) and an MIC (Aspergillus fumigatus) of 29 µg/mL (≈ 74.7 µM).
In the case of O=Cc1cn(C[C@@](O)(Cn2cncn2)c2ccc(Cl)cc2Cl)c2ccccc12, the MIC (Candida albicans) was 0.045 µg/mL (≈ 0.108 µM) and the MIC (Aspergillus fumigatus) was > 100 µg/mL.
With CCOC(=O)CCc1cn(C[C@@](O)(Cn2cncn2)c2ccc(Cl)cc2Cl)c2ccccc12 the MIC (Candida albicans) was 0.33 µg/mL (≈ 0.677 µM) and the MIC (Aspergillus fumigatus) was > 100 µg/mL.
With CCOC(=O)Cc1cn(C[C@@](O)(Cn2cncn2)c2ccc(Cl)cc2Cl)c2ccccc12 the MIC (Candida albicans) was 0.006 µg/mL (≈ 0.0127 µM) and the MIC (Aspergillus fumigatus) was > 100 µg/mL.
Compound O[C@@](Cn1cncn1)(Cn1ncc2ccccc21)c1ccc(F)cc1F has an MIC (Candida albicans) of 0.019 µg/mL (≈ 0.0535 µM) and an MIC (Aspergillus fumigatus) of 24 µg/mL (≈ 67.5 µM).
For O[C@@](Cn1cncn1)(Cn1cnc2ccccc21)c1ccc(Cl)cc1Cl, the MIC (Candida albicans) was 0.026 µg/mL (≈ 0.067 µM) and the MIC (Aspergillus fumigatus) was > 100 µg/mL.
OC(Cn1cncn1)(Cn1nc2ccccc2n1)c1ccc(Cl)cc1Cl (stereo unspecified) was tested, and the MIC (Candida albicans) was 0.01 µg/mL (≈ 0.0257 µM) and the MIC (Aspergillus fumigatus) was > 100 µg/mL.
With O[C@](CN1CCc2ccccc21)(Cn1cncn1)c1ccc(Cl)cc1Cl the MIC (Candida albicans) was 2.72 µg/mL (≈ 6.99 µM) and the MIC (Aspergillus fumigatus) was > 100 µg/mL.
For OC(Cn1cncn1)(Cn1nc2ccccc2n1)c1ccc(F)cc1F (stereo unspecified), the MIC (Candida albicans) was > 0.036 µg/mL and the MIC (Aspergillus fumigatus) was > 100 µg/mL.
O[C@@](Cn1cncn1)(Cn1nnc2ccccc21)c1ccc(Cl)cc1Cl was tested, and the MIC (Candida albicans) was 0.02 µg/mL (≈ 0.0514 µM) and the MIC (Aspergillus fumigatus) was > 100 µg/mL.
O[C@@](Cn1cncn1)(Cn1nnc2ccccc21)c1ccc(F)cc1F was tested, and the MIC (Candida albicans) was 0.025 µg/mL (≈ 0.0702 µM) and the MIC (Aspergillus fumigatus) was > 100 µg/mL.
CCC(C)n1ncn(-c2ccc(N3CCN(c4ccc(OCC5COC(Cn6cncn6)(c6ccc(Cl)cc6Cl)O5)cc4)CC3)cc2)c1=O (stereo unspecified) [ITRACONAZOLE] showed an MIC (Aspergillus fumigatus) of 0.5 µg/mL (≈ 0.709 µM).
For O[C@@](Cn1cncn1)(Cn1cnc2ccccc21)c1ccc(F)cc1F, the MIC (Candida albicans) was 0.233 µg/mL (≈ 0.656 µM) and the MIC (Aspergillus fumigatus) was > 100 µg/mL.
In the case of C[C@@H]1[C@H](O)[C@@H](C)/C=C/C=C/C=C/C=C/C=C/C=C/C=C/[C@H](O[C@@H]2O[C@H](C)[C@@H](O)[C@H](N)[C@@H]2O)C[C@@H]2O[C@](O)(C[C@@H](O)C[C@@H](O)[C@H](O)CC[C@@H](O)C[C@@H](O)CC(=O)O[C@H]1C)C[C@H](O)[C@H]2C(=O)O [AMPHOTERICIN B], the MIC (Candida albicans) was 0.12 µg/mL (≈ 0.13 µM) and the MIC (Aspergillus fumigatus) was 0.14 µg/mL (≈ 0.152 µM).
